For test [1], the target named is T1, human L-type amino acid transporter 2 (LAT2; S2-hLAT2 cells) (Homo sapiens, UniProt Q9UHI5).
T1 construct: expressed in transfected cells; host or cells: S2 cells (S2-hLAT2 / S2-LAT2); mammalian cell line described in Morimoto et al., J Pharmacol Sci 2008, 108, 505-516
T1 sequence (Q9UHI5 1-535): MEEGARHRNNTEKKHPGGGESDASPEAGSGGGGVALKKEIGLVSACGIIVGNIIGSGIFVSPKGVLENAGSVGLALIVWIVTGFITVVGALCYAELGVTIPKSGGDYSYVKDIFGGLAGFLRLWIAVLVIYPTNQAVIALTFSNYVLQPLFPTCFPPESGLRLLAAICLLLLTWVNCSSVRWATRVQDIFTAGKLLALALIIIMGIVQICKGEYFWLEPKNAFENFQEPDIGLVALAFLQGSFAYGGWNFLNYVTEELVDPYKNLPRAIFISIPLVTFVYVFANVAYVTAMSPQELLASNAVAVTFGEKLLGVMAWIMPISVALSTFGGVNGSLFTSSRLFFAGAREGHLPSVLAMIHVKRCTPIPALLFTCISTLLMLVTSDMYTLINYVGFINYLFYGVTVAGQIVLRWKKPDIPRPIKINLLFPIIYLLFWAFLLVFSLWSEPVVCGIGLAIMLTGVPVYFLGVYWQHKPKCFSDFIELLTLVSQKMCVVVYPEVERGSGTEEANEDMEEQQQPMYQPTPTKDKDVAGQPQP
T1 sequence (P08195 1-529 partner): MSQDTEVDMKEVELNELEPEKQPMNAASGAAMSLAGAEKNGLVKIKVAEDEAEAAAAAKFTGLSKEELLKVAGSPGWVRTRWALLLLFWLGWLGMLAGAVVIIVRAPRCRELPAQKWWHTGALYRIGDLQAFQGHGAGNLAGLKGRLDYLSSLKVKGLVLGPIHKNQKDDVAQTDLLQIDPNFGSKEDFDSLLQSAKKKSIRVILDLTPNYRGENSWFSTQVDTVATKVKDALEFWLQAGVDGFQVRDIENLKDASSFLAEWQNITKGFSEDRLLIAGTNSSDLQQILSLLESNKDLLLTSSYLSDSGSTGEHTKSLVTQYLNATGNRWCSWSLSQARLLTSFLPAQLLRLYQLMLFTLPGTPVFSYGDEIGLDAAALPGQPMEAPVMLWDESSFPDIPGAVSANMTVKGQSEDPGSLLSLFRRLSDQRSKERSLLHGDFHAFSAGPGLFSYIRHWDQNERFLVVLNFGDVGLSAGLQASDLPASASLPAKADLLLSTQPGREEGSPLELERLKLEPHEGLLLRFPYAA
Put plainly: Inhibition of L-[14C]leucine uptake in S2-LAT2 cells. Format: cell-based. As to conditions: inhibition of 1.0 μM L-[14C]leucine uptake, 1.0 min, 37° C., NI = no inhibition at 100 μM. On the procedure:
(§1) The establishment and characterization of mammalian cell lines expressing human L-type amino acid transporterss (i.e. S2-hLAT1 and S2-hLAT2) has been previously described (Morimoto et al., Journal of Pharmacological Sciences, 2008, 108, 505-516).
(§2) General test procedures are as follows: All test compounds were dissolved in dimethyl sulfoxide (DMSO) to prepare stock solutions at the concentrations of 0.05, 0.5, 5.0 and 50 mM; next, these stock solutions were used and diluted with uptake solution to make final test concentrations of 0.10, 1.00, 10.0 and 100 μM, respectively. Therefore, all compounds used for uptake experiment were in uptake solution containing 0.2% DMSO; experiments are performed in triplicate for each concentration. For control uptake, only DMSO was added into the uptake solution to a final concentration of 0.2%.
(§3) S2-LAT1 and S2-LAT2 cells were seeded (1.3×10^5 cells/well) into 24-well plates and cultured at 33° C. (5% CO2) for 2-3 days until confluent (90%-100% confluence). Uptake experiments were performed at 37° C. The culture medium was removed and washed 3 times with uptake solution (37° C.; Hank's Na^+ free buffer consisting of 125 mM choline chloride, 4.8 mM KCl, 1.3 mM CaCl2, 1.2 mM MgCl2, 25.0 mM HEPES, and 5.0 mM Tris, pH 7.4, supplemented with D-glucose (5.6 mM). The cells were equilibrated in uptake solution (300 μL; 37° C.) for 12 min. The equilibrated solution was removed and uptake solution containing radio-labeled compound (1.0 μM L-[^14C] Leucine) with or without test compound (300 μL) was added to the cells (1.0 min). The test solution was removed and the cells washed 3 times with ice-cold uptake solution. The cells are then solubilized with 0.1N NaOH (0.5 mL) and transferred to scintillation vials. Liquid scintillation fluid (3.0 mL; aquasol-2) was added, mixed and substrate accumulation was measured by counting radioactivity via liquid scintillation counting (LSC; LSC6100, Aloka, Tokyo). The uptake value and % of inhibition were calculated to afford IC50 values.

Test [2] addresses T2, human L-type amino acid transporter 1 (LAT1; S2-hLAT1 cells) (Homo sapiens, UniProt Q01650).
T2 construct: expressed in transfected cells; host or cells: S2 cells (S2-hLAT1 / S2-LAT1); mammalian cell line described in Morimoto et al., J Pharmacol Sci 2008, 108, 505-516
Put plainly: Inhibition of L-[14C]leucine uptake in S2-LAT1 cells. To be noted: inhibition of 1.0 μM L-[14C]leucine uptake, 1.0 min, 37° C., NI = no inhibition at 100 μM. Format: cell-based. The protocol:
as §1, §2, §3

The values that follow come from patent US20110150767A1, “ALPHA-SUBSTITUTED AND ALPHA-UNSUBSTITUTED AROMATIC AMINO ACID DERIVATIVES AND COMPOSITIONS THEREOF FOR USE TO TREAT, DIAGNOSE, OR MONITOR A MEDICAL CONDITION” (priority 2009, published 2011).

T2 sequence (Q01650 whole entry, one chain of several): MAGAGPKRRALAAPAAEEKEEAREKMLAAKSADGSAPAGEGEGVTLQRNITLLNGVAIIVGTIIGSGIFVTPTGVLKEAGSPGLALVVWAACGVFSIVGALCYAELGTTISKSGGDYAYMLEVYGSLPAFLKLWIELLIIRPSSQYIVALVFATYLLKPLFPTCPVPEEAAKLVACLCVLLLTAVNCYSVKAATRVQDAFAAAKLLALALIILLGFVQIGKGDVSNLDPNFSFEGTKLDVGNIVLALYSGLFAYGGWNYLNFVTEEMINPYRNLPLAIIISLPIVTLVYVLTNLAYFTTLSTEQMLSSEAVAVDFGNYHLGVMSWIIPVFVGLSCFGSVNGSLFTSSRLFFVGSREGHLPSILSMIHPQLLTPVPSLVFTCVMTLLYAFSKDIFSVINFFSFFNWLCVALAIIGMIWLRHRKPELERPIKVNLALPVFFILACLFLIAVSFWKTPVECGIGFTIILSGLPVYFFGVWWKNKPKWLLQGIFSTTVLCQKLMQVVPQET

A word on the IC50: it is the concentration that gives 50% inhibition. Read a low IC50 as greater potency in that assay. Take `COc1cc(Cl)ccc1COc1c(Cl)cc(C[C@H](N)C(=O)O)cc1Cl` [compound 134]: the IC50 in test [1] is > 100 µM; in test [2], 4.4 µM.
The matching figures for `COc1ccc(COc2c(Cl)cc(C[C@H](N)C(=O)O)cc2Cl)c(OC)n1` [compound 135]: 32.5 µM and 2.4 µM.
Turning to `COc1ccc(COc2c(Cl)cc(C[C@H](N)C(=O)O)cc2Cl)c(OC)c1OC` [compound 136], the IC50 in test [1] was > 100 µM; in test [2], 8.1 µM.
Taken in the same sequence, the figures for `COc1ccc(COc2c(Cl)cc(C[C@H](N)C(=O)O)cc2Cl)c(C)c1C` [compound 137] were > 100 µM and 3.5 µM.
The matching figures for `COc1cc(OC)c(OC)cc1COc1c(Cl)cc(C[C@H](N)C(=O)O)cc1Cl` [compound 138]: > 100 µM and 29.2 µM.
As to `CCOc1cc(COc2c(Cl)cc(C[C@H](N)C(=O)O)cc2Cl)cc(OCC)c1OCC` [compound 139], the IC50 in test [1] is > 100 µM; in test [2], 1.2 µM.
Taken in the same sequence, the figures for `CCOc1ccc(COc2c(Cl)cc(C[C@H](N)C(=O)O)cc2Cl)c(OCC)c1` [compound 140] were > 100 µM and 2.2 µM.
Regarding `CCOc1ccc(COc2c(Cl)cc(C[C@H](N)C(=O)O)cc2Cl)cc1OCC` [compound 141], the IC50 is 44.9 µM in test [1] and 2.9 µM in test [2].
